From US7550457B2, “Pharmaceutically effective compounds” (CytRx Corporation, priority 2002, dated 2009) come the findings set out here.

Experiment [1] concerns thoracic aorta of SH rats. Put plainly: Vaso-relaxing effect on the thoracic aorta of SH rats (in vitro testing after one month treatment). The experiment is classed as in vivo, rat. The conditions noted are these: aorta rings of SH rats treated for one month (dose per compound as in table), contracted with 10^-6 M methoxamine, unit assumed; for vessel relaxing effect, Ach dose 10^-6 M: acetylcholine 10^-6 M; for vessel relaxing effect, Ach dose 10^-4 M: acetylcholine 10^-4 M; for vessel relaxing effect, Ach dose 10^-5 M: acetylcholine 10^-5 M. The protocol: In the following, we give the results of the test of blood vessel relaxing effect, performed in vitro on rat vessels, and also the morphological results of the thoracic aorta.
(§1) Three-month-old, genetically hypertonic (SH) Wistar Okamoto rats were treated for one month with various test compounds. Thereafter the functional and morphological tests were performed.
The Vaso-relaxing Effect of the Compounds of the Invention on the Thoracic Aorta of SH Rats (In Vitro Testing)
The test was performed by the method known from the literature [Japan J. Pharmacol., 59, 339-347 (1992)]. The SH rats were anesthetized with Nembutal (40 mg/kg, i. p.), then the thoracic aorta was removed and placed in oxygenized (95% O2+5% CO2) Krebs-Henseleit solution. The composition of the solution (mM): NaCl 118, KCI 4, 7, CaCl2 2,52, MgSO4 1,64, NaHCO3 24,88, KH2PO4 1,18, glucose 5,5. The 3-mm-long aorta rings were suspended in a 20 ml organ bath of 37° C. The resting tension was 1 g, which was maintained throughout the equilibration. During the 1 hour equilibration, the medium was changed in every 20 minutes. The vessels were contracted with 10^−6 M methoxamine (approximately 80% of maximal contraction). After reaching the maximal contraction, we tested the vasodilation resulting as the effect of the acetylcholine (Ach) (10^−6−10^−4 M), which informed us about the condition of the endothelium of the vessel wall. The contraction force was measured by an isometric strain gauge (SG-01D, Experimentia Ltd), and was registered on an OH-850 polygraph (Radelkis). At this time again, 5,6-dihydro-5-(1-piperidinyl)-methyl-3-(3-pyridyl)-4H-1,2,4-oxadiazine as described in WO 98/06400 was used as a reference compound.

Experiment [2] concerns thoracic aorta of SH rats. As to the kind of experiment: Morphological testing of the thoracic aortas with electron microscopy. The experiment is classed as in vivo, rat. On the set-up: key: 1: no regeneration was observable; 2: weak; 3: average; 4: good; 5: strong regeneration. The note with it: SH rats treated p. o. for one month (dose per compound as in table), scale of 1 to 5, electron microscopy of thoracic aorta endothelium. As for the experimental part: as §1
Morphological Testing of the Thoracic Aortas with Electron Microscopy
The test was performed according to the procedure known from the literature (Br. J. of Pharmacol., 1995; 115, 415-420). 1 mm^2 pieces of the aorta wall was cut out of the thoracic aorta of the rats, and were then fixed with 2.5% glutaraldehyde at room temperature for 2 hours. This was followed by a post-fixation with 1% osmium tetroxide for 1 hour. Afterwards, the tissue pieces were dehydrated with ethanol, and embedded in Durcupan ACM. The samples were evaluated qualitatively based on the images recorded on a Hitachi 7100 electron microscope.
On the scale, 1 was used to refer to cases where no regeneration was observable, 2 refers to weak, 3 to average, 4 to good, and 5 to strong regeneration.

The subject of experiment [3] is human umbilical vein endothelial cells (HUVEC). As to the kind of experiment: Wounding migration assay in endothelial cell culture. The experiment is classed as cell-based. The note with it: wounded HUVEC monolayer, 24 hours after wounding, test agent 10^-6 M. The protocol:
Wounding Migration Assay in Endothelial Cell Culture
The effect of the compounds of the invention on the wounded monolayers of human umbilical vein endothelial cells (HUVEC) were studied in a cell culture system (in vitro). After reaching confluence, the HUVEC cells were wounded according to the method of Yamamura et al. (J. Surgical Res. 63, 349-354, 1996). The number of migrated cells were registered using computerized image analysis 24 hours after wounding in the absence and presence of the active agents under testing in a concentration of 10^−6 M. The active ingredient described in publication no. WO 98/06400, namely 5,6-dihydro-5-(1-piperidinyl)-methyl-3-(3-pyridyl)-4H-1,2,4-oxadiazine was used as reference compound.

For `[O-][n+]1cccc(C2=NOCC(CN3CCCCC3)N2)c1` (single isomer, unassigned; (+)) [Compound no. 9, (+)-5,6-dihydro-5-[(1-piperidinyl)methyl]-3-(1-oxido-3-pyridyl)-4H-1,2,4-oxadiazine], the vessel relaxing effect, Ach dose 10^-6 M in experiment [1] is 87%.
In experiment [1], `Cl.ClC(=NOCC(Cl)CN1CCCCC1)c1ccccc1` (centres unmarked) [Compound no. 12, N-[2-chloro-3-(1-piperidinyl)propoxy]-3-benzimidoyl-chloride hydrochloride] showed a vessel relaxing effect, Ach dose 10^-4 M of 80.4%; a vessel relaxing effect, Ach dose 10^-5 M of 83.5%; a vessel relaxing effect, Ach dose 10^-6 M of 82.3%. This molecule registered a Degree of regeneration in experiment [2] of 3. In addition, the “number of migrated cells, cell/mm^2 24 hours” value (shortened to “number of migrated cells”) in experiment [3] is 60 cell/mm^2.
Consider `c1cncc(C2=NOCC(CN3CCCCC3)N2)c1` (centres unmarked) [Reference, 5,6-dihydro-5-(1-piperidinyl)-methyl-3-(3-pyridyl)-4H-1,2,4-oxadiazine, reference compound], for which, in experiment [1], the vessel relaxing effect, Ach dose 10^-4 M was 81.7%; the vessel relaxing effect, Ach dose 10^-5 M was determined as 80.2%; the vessel relaxing effect, Ach dose 10^-6 M turned out to be 77.4%. Also, the “number of migrated cells” value in experiment [3] is 30 cell/mm^2.
In experiment [1], `OC1CCN(CC2CON=C(c3cccnc3)N2)CC1` (centres unmarked) [Compound no. 11, 5,6-dihydro-5-[(4-hydroxy-1-piperidinyl)methyl]-3-(3-pyridyl)-4H-1,2,4-oxadiazine] yielded a vessel relaxing effect, Ach dose 10^-4 M of 86%; a vessel relaxing effect, Ach dose 10^-5 M of 85.1%; a vessel relaxing effect, Ach dose 10^-6 M of 79.7%. Further, in experiment [2], the Degree of regeneration is recorded as 4. The “number of migrated cells” value in experiment [3] is 51 cell/mm^2.
In experiment [1], `O=C(NOCC(O)CN1CCCCC1)c1ccc[n+]([O-])c1` (centres unmarked) [Compound no. 13, N-[2-hydroxy-3-(1-piperidinyl)propoxy]-pyridin-1-oxide-3-carboxamide] displayed a vessel relaxing effect, Ach dose 10^-4 M of 95.2%; a vessel relaxing effect, Ach dose 10^-5 M of 90.3%; a vessel relaxing effect, Ach dose 10^-6 M of 88.4%. This molecule displayed a Degree of regeneration in experiment [2] of 4. For the same molecule, in experiment [3], the “number of migrated cells” value is on record as 54 cell/mm^2.
In turn, `O=C1CCCCN1CC1CON=C(c2cccnc2)N1` (single isomer, unassigned) [Compound no. 8, (R) or (S)-5,6-dihydro-5-[(2-oxo-1-piperidinyl)methyl]-3-(3-pyridyl)-4H-1,2,4-oxadiazine] gave a vessel relaxing effect, Ach dose 10^-5 M in experiment [1] of 88%.
In the case of `O.O.O=[N+]([O-])c1cccc(C(Cl)=NOCCC[N+]2([O-])CCCCC2)c1` [Compound no. 4, N-[3-(1-oxido-1-piperidinyl)propoxy]-3-nitro-benzimidoyl-chloride dihydrate], in experiment [1], the vessel relaxing effect, Ach dose 10^-4 M was 88.1%; the vessel relaxing effect, Ach dose 10^-5 M was determined as 84.9%; the vessel relaxing effect, Ach dose 10^-6 M is 82.5%. Besides, the Degree of regeneration in experiment [2] came out at 5. Besides, the “number of migrated cells” value in experiment [3] was 45 cell/mm^2.
